Source: paper PMC11416114 (Infection and Drug Resistance, 2024)
Where “and” joins values, the source holds several entries; their conditions need not be identical. Equal values may be shown once. Read-outs that look alike come from different tables or passages of the source.

What was measured:
[1] = cited from earlier work
[2] = clinical; details: human, in vivo, 300 mg
[3] = system: SARS-CoV-2; details: free exposure, cited from earlier work
[4] = eight CRRT supported critically ill patients; cited from earlier work
[5] = Chinese patients aged 60 and above; typical patient; cited from earlier work
[6] = mild to moderate hepatic impairment; cited from earlier work
[7] = cited from earlier work; remark: listed apart in the source
[8] = cited from earlier work; remark: listed apart in the source
[9] = critically ill adult patients; for Residual variability (σ) stdev, Final Model Estimate, Mean: log-additive error
[10] = limit for steady-state Cpeak; cited from earlier work
[11] = healthy young adults, NIR/RIT 2250mg/100mg once

CC(C)(C)[C@H](NC(=O)C(F)(F)F)C(=O)N1C[C@H]2[C@@H]([C@H]1C(=O)N[C@H](C#N)C[C@@H]1CCNC1=O)C2(C)C [NIR, Nirmatrelvir]
CL/F ([1]; healthy adults aged 18–60): 8.2 L/h
Ka ([1]; healthy adults aged 18–60): 1.11 h⁻¹
V/F ([1]; healthy adults aged 18–60): 111 L
AUC [1, 11]: 188.2 µg·h/mL
CL/F [1, 11]: 3.97 L/h
V/F [1, 11]: 40.06 L
AUC [2]: 107 µg·h/mL
in vitro EC90 (free) [3]: 0.0905 µg/mL
EC90 ([3]; read-out: in vitro EC90 (free)): 181 nM
valley concentrations [4]: 3325.34 to 15625.46 ng/mL
CL/F [5]: 4.16 L/h
Ka [5]: 0.776 h⁻¹
V/F [5]: 39.1 L
median plasma concentration and AUC in hepatic impairment [6]: comparable to those with normal hepatic function
protein binding [7]: approximately 70%
CL/F lower than normal renal function group ([8]; moderate renal impairment group): 47%
CL/F lower than normal renal function group ([8]; severe renal impairment group): 80%
absorption rate constant (Ka), mean (SD) [9]: 0.42 (0.10) h^−1 and 0.42 h^−1
apparent clearance (CL/F), mean (SD) [9]: 3.6 (0.26) L/h and 3.6 L/h
Residual variability (σ) stdev, Bootstrap Estimate, Median ([9]; bootstrap): 0.26
dCLdAUCRIT, Bootstrap Estimate, Median ([9]; bootstrap): −0.44
dCLdCrCL, Bootstrap Estimate, Median ([9]; bootstrap): 0.58
ω^2V (inter-individual variability), Bootstrap Estimate, Median ([9]; bootstrap): 0.60
tvCL, Bootstrap of Final Model Estimate, Median ([9]; bootstrap 1000 samples): 3.2 L/h
tvKa, Bootstrap of Final Model Estimate, Median ([9]; bootstrap 1000 samples): 0.61 h⁻¹
Residual variability (σ) stdev, Final Model Estimate, Mean ([9]; final model): 0.26
tvCL, Final Model Estimate, Mean ([9]; one-compartment final model): 3.6 L/h
tvKa, Final Model Estimate, Mean ([9]; one-compartment final model): 0.42 h⁻¹
human no observed adverse effect levels (NOAELs) [10]: 79,700 ng/mL

CC(C)c1nc(CN(C)C(=O)N[C@H](C(=O)N[C@@H](Cc2ccccc2)C[C@H](O)[C@H](Cc2ccccc2)NC(=O)OCc2cncs2)C(C)C)cs1 [RIT, Ritonavir]
Residual variability (σ) stdev, Bootstrap Estimate, Median ([9]; bootstrap): 0.34
ω^2CL (inter-individual variability), Bootstrap Estimate, Median ([9]; bootstrap): 0.53
ω^2V (inter-individual variability), Bootstrap Estimate, Median ([9]; bootstrap): 1.64
tvCL, Bootstrap of Final Model Estimate, Median ([9]; bootstrap 1000 samples): 10.3 L/h
tvKa, Bootstrap of Final Model Estimate, Median ([9]; bootstrap 1000 samples): 1.10 h⁻¹
tvV, Bootstrap of Final Model Estimate, Median ([9]; bootstrap 1000 samples): 82.4 L
ω^2CL (inter-individual variability), Final Model Estimate, Mean ([9]; final model): 0.57
ω^2V (inter-individual variability), Final Model Estimate, Mean ([9]; final model): 1.27
Residual variability (σ) stdev, Final Model Estimate, Mean ([9]; final model): 0.34
tvCL, Final Model Estimate, Mean ([9]; one-compartment final model): 10.3 L/h
tvKa, Final Model Estimate, Mean ([9]; one-compartment final model): 0.64 h⁻¹
tvV, Final Model Estimate, Mean ([9]; one-compartment final model): 84.9 L
